Laboratory results: patent publication US8735377B1, “Methods of treating herpes zoster” (priority 2010, dated 2014)

Legend:
[1] = Plasma concentration of COL-3 in humans; type: in vivo; conditions: dose of about 10 to about 20 mg/day
Experimental: An example of a COL is 6-demethyl-6-deoxy-4-de(dimethylamino)tetracycline (COL-3). COL-3 is administered in doses of up to about 200 mg/day, preferably about 150 mg/day, more preferably about 100 mg/day, or in amounts that result in plasma concentrations of up to about 50 μg/ml, about 40 μg/ml or about 30 μg/ml. For example, a dose of about 10 to about 20 mg/day of COL-3 produces plasma concentrations in humans of about 1.0 μg/ml.

herpes zoster (shingles) = assay: Case report: patient on sub-antibacterial doxycycline hyclate who presented with shingles; type: in vivo, human; conditions: one patient
Experimental: The below Example summarizes an incidence using 20 mg doxycycline hyclate tablets administered twice a day.
A person (hereinafter “the patient”) had been taking generic Periostat® (20 mg doxycycline hyclate b.i.d.) for over a six month period when they presented with shingles. […] By this time, the patient had blistering and vesicular lesions, and lesions consisting of deep scabs on their face (e.g., upper cheek), neck and chest. All lesions presented on patient's left side without crossing the midline.
The patient also reported being lethargic, weak and dizzy.
The medical doctor who examined the patient was very surprised to hear that the lesions were not painful. They said that the lesions were at the stage where they typically cause intense pain. The doctor predicted that, even if the lesions were not painful at the moment, they would become very painful shortly, particularly since antiviral therapy would be initiated after 72 hours of the appearance of the characteristic lesions. Accordingly, the doctor prescribed the narcotic pain reliever Percocet®.
The doctor also prescribed VALTREX®, an antiherpetic medication, in a dose of a 1 gram tablet, taken 3 times a day for 7 days. The doctor advised that VALTREX® should have been started within 2 or 3 days of the first appearance of a lesion in order to effectively minimize pain.
The patient began taking the VALTREX®, as prescribed. […]

Row | Compound | plasma concentration in humans [1] | pain reported by the patient throughout the course of shingles (herpes zoster (shingles); 20 mg b.i.d., no analgesic taken) | inhibition of the pain typically associated with lesions of shingles (herpes zoster (shingles); 20 mg tablets twice a day, taken for over six months before onset, VALTREX started over 96 hours after first lesion, no analgesic)
1 | NC(=O)C1=C(O)C[C@@H]2C[C@@H]3Cc4cccc(O)c4C(=O)C3=C(O)[C@]2(O)C1=O [COL-3, 6-demethyl-6-deoxy-4-dedimethylaminotetracycline] | about 1.0 μg/ml |  | 
2 | doxycycline hyclate |  | did not feel any pain whatsoever | virtually complete inhibition
